Experimental data as given in patent US20110086759A1, “CHEMICAL COMPOUNDS” (SYNGENTA CROP PROTECTION, INC., priority 2007, published 2011).

Columns and labels:
Assay type in all cases: in vivo
Solanum nigrum (SOLNI) [1] = assay: Pre-emergence biological efficacy, glasshouse pot test; settings: 312 h
Procedure, shortened: (§1)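 Damage rated 0–100 (100 = total kill) 13 days post-spray. Pots of standard soil were sown and sprayed after one day with test compound at 1000 or 250 g/ha in acetone/water (50:50) plus 0.5% Tween 20.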

[2] = tested on: Amaranthus retoflexus (AMARE); assay: as above; settings: Amaranthus retroflexus, 312 h
Procedure, shortened: as §1

[3] = tested on: Ipomea hederaceae (IPOHE); assay: as above; settings: Ipomoea hederacea, 312 h
Procedure, shortened: as §1

[4] = tested on: Alopecurus myosuroides (ALOMY); assay: as above; settings: 312 h
Procedure, shortened: as §1

Setaria faberi (SETFA) [5] = assay: as above; settings: 312 h
Procedure, shortened: as §1

[6] = tested on: Echinochloa crus-galli (ECHCG); assay: as above; settings: 312 h
Procedure, shortened: as §1

Solanum nigrum (SOLNI) [7] = assay: Post-emergence biological efficacy, glasshouse pot test; settings: 312 h
Procedure, shortened: (§2)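 Pot-grown weeds were sprayed 8 days after sowing with test compound in acetone/water (50:50) with 0.5% Tween 20 at 1000 or 250 g/ha. Glasshouse at 24/16° C day/night, 14 h light, 65% humidity. Damage scored 0-100 (100 = total damage) after 13 days.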

[8] = tested on: Amaranthus retoflexus (AMARE); assay: as above; settings: Amaranthus retroflexus, 312 h
Procedure, shortened: as §2

[9] = tested on: Ipomea hederaceae (IPOHE); assay: as above; settings: Ipomoea hederacea, 312 h
Procedure, shortened: as §2

[10] = tested on: Alopecurus myosuroides (ALOMY); assay: as above; settings: 312 h
Procedure, shortened: as §2

Setaria faberi (SETFA) [11] = assay: as above; settings: 312 h
Procedure, shortened: as §2

[12] = tested on: Echinochloa crus-galli (ECHCG); assay: as above; settings: 312 h
Procedure, shortened: as §2

[13] = pre-emergence, rate 1,000 g/ha, evaluated after 13 days (100=total damage to plant; 0=no damage), read-out: Percentage damage caused to weed species, SOLNI
[14] = pre-emergence, rate 1,000 g/ha, evaluated after 13 days (100=total damage to plant; 0=no damage), read-out: Percentage damage caused to weed species, AMARE
[15] = pre-emergence, rate 1,000 g/ha, evaluated after 13 days (100=total damage to plant; 0=no damage), read-out: Percentage damage caused to weed species, IPOHE
[16] = pre-emergence, rate 1,000 g/ha, evaluated after 13 days (100=total damage to plant; 0=no damage), read-out: Percentage damage caused to weed species, ALOMY
[17] = pre-emergence, rate 1,000 g/ha, evaluated after 13 days (100=total damage to plant; 0=no damage), read-out: Percentage damage caused to weed species, SETFA
[18] = pre-emergence, rate 1,000 g/ha, evaluated after 13 days (100=total damage to plant; 0=no damage), read-out: Percentage damage caused to weed species, ECHCG
[19] = Rate 1,000 g/ha, post-emergence spray, evaluated after 13 days (100=total damage to plant; 0=no damage to plant), read-out: Percentage damage caused to weed species, post-emergence, SOLNI
[20] = Rate 1,000 g/ha, post-emergence spray, evaluated after 13 days (100=total damage to plant; 0=no damage to plant), read-out: Percentage damage caused to weed species, post-emergence, AMARE
[21] = Rate 1,000 g/ha, post-emergence spray, evaluated after 13 days (100=total damage to plant; 0=no damage to plant), read-out: Percentage damage caused to weed species, post-emergence, IPOHE
[22] = Rate 1,000 g/ha, post-emergence spray, evaluated after 13 days (100=total damage to plant; 0=no damage to plant), read-out: Percentage damage caused to weed species, post-emergence, ALOMY
[23] = Rate 1,000 g/ha, post-emergence spray, evaluated after 13 days (100=total damage to plant; 0=no damage to plant), read-out: Percentage damage caused to weed species, post-emergence, SETFA
[24] = Rate 1,000 g/ha, post-emergence spray, evaluated after 13 days (100=total damage to plant; 0=no damage to plant), read-out: Percentage damage caused to weed species, post-emergence, ECHCG
[25] = pre-emergence, 1,000 g/ha, evaluated after 13 days (100=total damage; 0=no damage), read-out: Percentage damage SOLNI
[26] = pre-emergence, 1,000 g/ha, evaluated after 13 days (100=total damage; 0=no damage), read-out: Percentage damage AMARE
[27] = pre-emergence, 1,000 g/ha, evaluated after 13 days (100=total damage; 0=no damage), read-out: Percentage damage IPOHE
[28] = pre-emergence, 1,000 g/ha, evaluated after 13 days (100=total damage; 0=no damage), read-out: Percentage damage ALOMY
[29] = pre-emergence, 1,000 g/ha, evaluated after 13 days (100=total damage; 0=no damage), read-out: Percentage damage SETFA
[30] = pre-emergence, 1,000 g/ha, evaluated after 13 days (100=total damage; 0=no damage), read-out: Percentage damage ECHCG
[31] = post-emergence, 1,000 g/ha, evaluated after 13 days (100=total damage; 0=no damage), read-out: Percentage damage caused to weed species, SOLNI
[32] = post-emergence, 1,000 g/ha, evaluated after 13 days (100=total damage; 0=no damage), read-out: Percentage damage caused to weed species, AMARE
[33] = post-emergence, 1,000 g/ha, evaluated after 13 days (100=total damage; 0=no damage), read-out: Percentage damage caused to weed species, IPOHE
[34] = post-emergence, 1,000 g/ha, evaluated after 13 days (100=total damage; 0=no damage), read-out: Percentage damage caused to weed species, ALOMY
[35] = post-emergence, 1,000 g/ha, evaluated after 13 days (100=total damage; 0=no damage), read-out: Percentage damage caused to weed species, SETFA
[36] = post-emergence, 1,000 g/ha, evaluated after 13 days (100=total damage; 0=no damage), read-out: Percentage damage caused to weed species, ECHCG

| SMILES | pest or weed control at 1000 g/ha (Solanum nigrum (SOLNI) [1]; [13]) [%] | pest or weed control at 1000 g/ha [2, 14] [%] | pest or weed control at 1000 g/ha [3, 15] [%] | pest or weed control at 1000 g/ha [4, 16] [%] | pest or weed control at 1000 g/ha (Setaria faberi (SETFA) [5]; [17]) [%] | pest or weed control at 1000 g/ha [6, 18] [%] | pest or weed control at 1000 g/ha (Solanum nigrum (SOLNI) [7]; [19]) [%] | pest or weed control at 1000 g/ha [8, 20] [%] | pest or weed control at 1000 g/ha [9, 21] [%] | pest or weed control at 1000 g/ha [10, 22] [%] | pest or weed control at 1000 g/ha (Setaria faberi (SETFA) [11]; [23]) [%] | pest or weed control at 1000 g/ha [12, 24] [%] | pest or weed control at 1000 g/ha (Solanum nigrum (SOLNI) [1]; [25]) [%] | pest or weed control at 1000 g/ha [2, 26] [%] | pest or weed control at 1000 g/ha [3, 27] [%] | pest or weed control at 1000 g/ha [4, 28] [%] | pest or weed control at 1000 g/ha (Setaria faberi (SETFA) [5]; [29]) [%] | pest or weed control at 1000 g/ha [6, 30] [%] | pest or weed control at 1000 g/ha (Solanum nigrum (SOLNI) [7]; [31]) [%] | pest or weed control at 1000 g/ha [8, 32] [%] | other results |
| --- | --- | --- | --- | --- | --- | --- | --- | --- | --- | --- | --- | --- | --- | --- | --- | --- | --- | --- | --- | --- | --- |
| COC(=O)c1nc(C2CC2)nc(N(C)Cc2ccc(Cl)c(Cl)c2)c1Cl [Compound 5-105, 5-Chloro-2-cyclopropyl-4-[N-(3,4-dichlorophenyl-methyl)-N-methyl-amino]-6-methoxy-carbonylpyrimidine] | 60 | 80 | 60 | 10 | 30 | 10 | 80 | 100 | 80 | 30 | 60 | 40 | – | – | – | – | – | – | – | – | – |
| COC(=O)c1nc(-c2ccc(Cl)c(C(F)(F)F)c2)nc(NCc2ccco2)c1Cl [Compound 217-48, 5-Chloro-2-(4-chloro-3-trifluoromethyl-phenyl)-4-(furan-2-ylmethylamino)-6-methoxycarbonyl-pyrimidine] | 50 | 20 | 0 | 20 | 20 | 0 | 70 | 80 | 30 | 10 | 20 | 0 | – | – | – | – | – | – | – | – | – |
| COC(=O)c1nc(-c2ccc(Cl)s2)nc(NCc2ccco2)c1Cl [Compound 262-48, 5-Chloro-2-(5-chlorothiophen-2-yl)-4-(furan-2-yl-methylamino)-6-methoxycarbonyl-pyrimidine] | 20 | 80 | 0 | 0 | 0 | 0 | 80 | 100 | 60 | 20 | 0 | 20 | – | – | – | – | – | – | – | – | – |
| COC(=O)c1nc(-c2cc(Cl)c(Cl)cc2Cl)nc(NCc2ccco2)c1Cl [Compound 228-48, 5-Chloro-4-(furan-2-ylmethylamino)-6-methoxycarbonyl-2-(2,4,5-trichloro-phenyl)pyrimidine] | 0 | 30 | 0 | 0 | 0 | 0 | 30 | 70 | 10 | 20 | 20 | 0 | – | – | – | – | – | – | – | – | – |
| C=CCC(Nc1nc(C2CC2)nc(C(=O)OC)c1Cl)c1ccc(Cl)cc1 (stereo not drawn) [Compound 4-198, 5-Chloro-4-[1-(4-chlorophenyl)but-3-en-1-yl-amino]-2-cyclopropyl-6-methoxycarbonyl-pyrimidine] | – | – | – | – | – | – | – | – | – | – | – | – | 20 | 30 | 70 | 0 | 0 | 0 | 30 | 40 | pest or weed control at 1000 g/ha [9, 33]: 60%; pest or weed control at 1000 g/ha [10, 34]: 20%; pest or weed control at 1000 g/ha (Setaria faberi (SETFA) [11]; [35]): 40%; pest or weed control at 1000 g/ha [12, 36]: 0% |
| COC(=O)c1nc(C2CC2)nc(NC(C)c2ccccc2)c1Cl (stereo not drawn) [Compound 4-174, 5-Chloro-2-cyclopropyl-6-methoxycarbonyl-4-(1-phenylethyl-amino)pyrimidine] | – | – | – | – | – | – | – | – | – | – | – | – | 70 | 80 | 50 | 20 | 20 | 30 | 90 | 100 | pest or weed control at 1000 g/ha [9, 33]: 100%; pest or weed control at 1000 g/ha [10, 34]: 30%; pest or weed control at 1000 g/ha (Setaria faberi (SETFA) [11]; [35]): 90%; pest or weed control at 1000 g/ha [12, 36]: 90% |
| COC(=O)c1nc(C2CC2)nc(N(C)Cc2ccc(C)cc2)c1Cl [Compound 5-73, 5-Chloro-2-cyclopropyl-6-methoxycarbonyl-4-[N-methyl-N-(4-methylphenyl)-methylamino]-pyrimidine] | 20 | 80 | 30 | 0 | 0 | 0 | 70 | 100 | 100 | 10 | 50 | 10 | – | – | – | – | – | – | – | – | – |
| COC(=O)c1nc(C2CC2)nc(N[C@@H](C)[C@H](O)c2ccccc2)c1Cl [4-270 (1S,2R), 5-Chloro-2-cyclopropyl-4-[(1S, 2R)-2-hydroxy-1-methyl-2-phenyl-ethylamino]-6-methoxycarbonyl-pyrimidine] | – | – | – | – | – | – | – | – | – | – | – | – | 80 | 70 | 100 | 20 | 30 | 20 | 100 | 100 | pest or weed control at 1000 g/ha [9, 33]: 100%; pest or weed control at 1000 g/ha [10, 34]: 40%; pest or weed control at 1000 g/ha (Setaria faberi (SETFA) [11]; [35]): 80%; pest or weed control at 1000 g/ha [12, 36]: 30% |
